Laboratory results published in patent publication US20240000883A1, “METHOD OF SENSITIZING CANCERS TO IMMUNOTHERAPY USING IMMUNOMODULATORY AGENTS” (The Trustees of Columbia University in the City of New York, priority 2020, published 2024).

Assays:
[1] = tested on: de novo pancreatic ductal adenocarcinoma (PDAC); assay: Survival of transgenic KPC mice bearing de novo PDAC under long-term treatment; format: in vivo
Protocol: FIG. 1A is a graph showing the percent survival of transgenic Kras-LSL^[…], p53-LSL^172H, Pdx-1-cre (KPC) mice bearing de novo pancreatic ductal adenocarcinoma (PDAC) treated with gemcitabine (GEM).
FIG. 1 presents data showing that iRGD therapy increases CD8^+ T cells in transgenic PDAC mice. […] We randomized mice to therapy with intraperitoneal (IP) gemcitabine alone (100 mg/kg/injection), intravenous (IV) iRGD alone (100 μg/injection) or gemcitabine co-administered with iRGD. Mice were followed with high resolution ultrasound and manual palpation until at least one tumor nodule of 4-5 mm became both palpable and visible on consecutive ultrasound exams. At this point, the mice were randomized to one of the three treatment arms. Treatment was given every 4 days until the animals were sacrificed for having signs of distress. […] Of note, while there was a difference in median survival favoring the combination (71 days versus 84 days), there was a more striking difference in the tail of the survival curve such that survival at 180 days was 0% for gemcitabine alone versus 40% in the iRGD+gemcitabine group.

[2] = tested on: Tregs in KPC-luc tumors; assay: Targeting of Tregs in KPC-luc PDAC by intravenously injected FAM-iRGD; format: in vivo, mice
Protocol: FIG. 2H is an image showing that intravenously injected FAM-iRGD (green) targets CD4^+ (magenta) Foxp3^+ (red) Tregs in KPC-luc PDAC (white arrowheads). Some iRGD-targeted Foxp3^+ cells were CD4^neg (black arrowheads). Blue=DAPI. Scale bar, 50 μm.
Based on the finding that Tregs in PDAC, but not those in the spleen expressed αv integrins and NPR-1 (the receptors of iRGD), studies were performed to determine whether iRGD selectively targets PDAC-infiltrating Tregs. Intravenously injected FAM-iRGD (green) targets CD4^+ (magenta) Foxp3^+ (red) Tregs in KPC-luc PDAC (See FIG. 2H, white arrowheads). Some iRGD-targeted Foxp3^+ cells were CD4^neg (black arrowheads). Blue, DAPI; scale bar, 50 μm.

Compound: Nc1ccn([C@@H]2O[C@H](CO)[C@@H](O)C2(F)F)c(=O)n1 [gemcitabine]
- survival at 180 days ([1]; 180 days): 0%
- median survival ([1]; treatment every 4 days): 71 days

Compound: FAM-iRGD: fluorescein (FAM)-labeled iRGD
- targeting of CD4+ Foxp3+ Tregs in KPC-luc PDAC [2]: targets
